# Laboratory results from patent US20250144094A1 (Erasca, Inc., priority 2021, published 2025).
# Target: Recombinant human ULK1 (1-649) (Homo sapiens (Human), UniProt O75385)
# Test: ULK1 ADP Glo kinase activity assay, new method (ULKtide peptide substrate)
# Conditions: 25° C., 40 minutes, read-out: ULK1 biochemical IC50
# Method in brief: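 GST-tagged human ULK1 (1-649) from Sf9 cells was reacted with ULKtide peptide and ATP for 40 min at 25 °C across 12-point compound dilutions from 10 μM. ADP formed was quantified by ADP-Glo luminescence; IC50 came from four-parameter fits relative to DMSO controls.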
# Recombinant human ULK1 (1-649), sequence (O75385 1-649): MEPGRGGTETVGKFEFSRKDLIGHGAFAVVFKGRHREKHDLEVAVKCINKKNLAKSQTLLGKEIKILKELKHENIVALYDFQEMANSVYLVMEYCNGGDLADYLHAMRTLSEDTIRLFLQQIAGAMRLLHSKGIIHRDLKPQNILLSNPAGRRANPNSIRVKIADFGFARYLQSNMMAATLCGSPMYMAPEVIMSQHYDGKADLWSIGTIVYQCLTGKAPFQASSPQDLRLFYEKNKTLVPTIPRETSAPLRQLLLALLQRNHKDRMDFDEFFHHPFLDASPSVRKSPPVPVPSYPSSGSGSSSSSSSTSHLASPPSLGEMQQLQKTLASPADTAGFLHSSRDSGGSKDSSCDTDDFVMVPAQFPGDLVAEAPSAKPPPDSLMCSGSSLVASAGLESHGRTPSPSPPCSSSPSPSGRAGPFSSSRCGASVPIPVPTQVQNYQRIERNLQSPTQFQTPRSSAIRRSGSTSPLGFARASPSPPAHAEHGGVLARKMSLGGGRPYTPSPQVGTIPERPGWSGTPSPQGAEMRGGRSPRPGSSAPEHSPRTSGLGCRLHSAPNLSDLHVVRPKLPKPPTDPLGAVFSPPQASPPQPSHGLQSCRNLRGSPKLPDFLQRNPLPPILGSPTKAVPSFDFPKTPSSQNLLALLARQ
row,Structure (SMILES),IC50
1,"CCc1cc(N2CCNCC2)ccc1Nc1ncc(C(F)(F)F)c(-c2cc3c(s2)C(=O)N(C2COC2)CCS3(=O)=O)n1 [Example 364, 7-(2-((2-ethyl-4-(piperazin-1-yl)phenyl)amino)-5-(trifluoromethyl)pyrimidin-4-yl)-4-(oxetan-3-yl)-3,4-dihydrothieno[2,3-f][1,4]thiazepin-5(2H)-one 1,1-dioxide]",≤ 5 nM
2,"CCc1cc(N2C[C@@H](C)N[C@@H](C)C2)ccc1Nc1ncc(C(F)(F)F)c(-c2cc3c(s2)C(=O)N(C2CC2)CCS3(=O)=O)n1 [Example 366, 4-cyclopropyl-7-(2-((4-((3S,5R)-3,5-dimethylpiperazin-1-yl)-2-ethylphenyl)amino)-5-(trifluoromethyl)pyrimidin-4-yl)-3,4-dihydrothieno[2,3-f][1,4]thiazepin-5(2H)-one 1,1-dioxide]",≤ 5 nM
3,"CCc1cc(N2C[C@@H](C)N(C)[C@@H](C)C2)ccc1Nc1ncc(C(F)(F)F)c(-c2cc3c(s2)C(=O)N(C2CC2)CCS3(=O)=O)n1 [Example 367, 4-cyclopropyl-7-(2-((2-ethyl-4-((3S,5R)-3,4,5-trimethylpiperazin-1-yl)phenyl)amino)-5-(trifluoromethyl)pyrimidin-4-yl)-3,4-dihydrothieno[2,3-f][1,4]thiazepin-5(2H)-one 1,1-dioxide]",≤ 5 nM
4,"CCc1cc(N2C[C@@H](C)N[C@@H](C)C2)ccc1Nc1ncc(C(F)(F)F)c(-c2cc3c(s2)C(=O)N(C2COC2)CCS3(=O)=O)n1 [Example 368, 7-(2-((4-((3S,5R)-3,5-dimethylpiperazin-1-yl)-2-ethylphenyl)amino)-5-(trifluoromethyl)pyrimidin-4-yl)-4-(oxetan-3-yl)-3,4-dihydrothieno[2,3-f][1,4]thiazepin-5(2H)-one 1,1-dioxide]",≤ 5 nM
5,"CCc1cc(N2C[C@@H](C)N(C)[C@@H](C)C2)ccc1Nc1ncc(C(F)(F)F)c(-c2cc3c(s2)C(=O)N(C2COC2)CCS3(=O)=O)n1 [Example 369, 7-(2-((2-ethyl-4-((3S,5R)-3,4,5-trimethylpiperazin-1-yl)phenyl)amino)-5-(trifluoromethyl)pyrimidin-4-yl)-4-(oxetan-3-yl)-3,4-dihydrothieno[2,3-f][1,4]thiazepin-5(2H)-one 1,1-dioxide]",≤ 5 nM
6,"CCc1cc(N2C[C@H](C)N[C@@H](C)C2)ccc1Nc1ncc(C(F)(F)F)c(-c2cc3c(s2)C(=O)N(C2COC2)CCS3(=O)=O)n1 [Example 370, 7-(2-((4-((3S,5S)-3,5-dimethylpiperazin-1-yl)-2-ethylphenyl)amino)-5-(trifluoromethyl)pyrimidin-4-yl)-4-(oxetan-3-yl)-3,4-dihydrothieno[2,3-f][1,4]thiazepin-5(2H)-one 1,1-dioxide]",≤ 5 nM
7,"NC(=O)[C@@H]1CN(c2ccc(Nc3ncc(C(F)(F)F)c(-c4cc5c(s4)C(=O)N(C4COC4)CCS5(=O)=O)n3)c(C3CC3)c2)CCN1 [Example 371, (S)-4-(3-cyclopropyl-4-((4-(4-(oxetan-3-yl)-1,1-dioxido-5-oxo-2,3,4,5-tetrahydrothieno[2,3-f][1,4]thiazepin-7-yl)-5-(trifluoromethyl)pyrimidin-2-yl)amino)phenyl)piperazine-2-carboxamide]",≤ 5 nM
8,"CN1CCN(c2ccc(Nc3ncc(C(F)(F)F)c(-c4cc5c(s4)C(=O)N(C4COC4)CCS5(=O)=O)n3)c(C3CC3)c2)C[C@H]1C(N)=O [Example 372, (S)-4-(3-Cyclopropyl-4-((4-(4-(oxetan-3-yl)-1,1-dioxido-5-oxo-2,3,4,5-tetrahydrothieno[2,3-f][1,4]thiazepin-7-yl)-5-(trifluoromethyl)pyrimidin-2-yl)amino)phenyl)-1-methylpiperazine-2-carboxamide]",≤ 5 nM
9,"CNC(=O)[C@@H]1CN(c2ccc(Nc3ncc(C(F)(F)F)c(-c4cc5c(s4)C(=O)N(C4COC4)CCS5(=O)=O)n3)c(C3CC3)c2)CCN1 [Example 373, (S)-4-(3-cyclopropyl-4-((4-(4-(oxetan-3-yl)-1,1-dioxido-5-oxo-2,3,4,5-tetrahydrothieno[2,3-f][1,4]thiazepin-7-yl)-5-(trifluoromethyl)pyrimidin-2-yl)amino)phenyl)-N-methylpiperazine-2-carboxamide]",≤ 5 nM
10,"C[C@@H]1CN(c2cc(C3CC3)c(Nc3ncc(C(F)(F)F)c(-c4cc5c(s4)C(=O)N(C4COC4)CCS5(=O)=O)n3)cn2)CCN1 [Example 374, (R)-7-(2-((4-cyclopropyl-6-(3-methylpiperazin-1-yl)pyridin-3-yl)amino)-5-(trifluoromethyl)pyrimidin-4-yl)-4-(oxetan-3-yl)-3,4-dihydrothieno[2,3-f][1,4]thiazepin-5(2H)-one 1,1-dioxide]",≤ 5 nM
11,"C[C@@H]1CN(c2ccc(Nc3ncc(C(F)(F)F)c(-c4cc5c(s4)C(=O)N(C4COC4)CCS5(=O)=O)n3)c(C3CC3)n2)CCN1 [Example 375, (R)-7-(2-((2-cyclopropyl-6-(3-methylpiperazin-1-yl)pyridin-3-yl)amino)-5-(trifluoromethyl)pyrimidin-4-yl)-4-(oxetan-3-yl)-3,4-dihydrothieno[2,3-f][1,4]thiazepin-5(2H)-one 1,1-dioxide]",≤ 5 nM
12,"C[C@@H]1CN(c2ccc(Nc3ncc(C(F)(F)F)c(-c4cc5c(s4)C(=O)N(C4COC4)CCS5(=O)=O)n3)c(C3CC3)n2)CCN1C [Example 376, (R)-7-(2-((2-cyclopropyl-6-(3,4-dimethylpiperazin-1-yl)pyridin-3-yl)amino)-5-(trifluoromethyl)pyrimidin-4-yl)-4-(oxetan-3-yl)-3,4-dihydrothieno[2,3-f][1,4]thiazepin-5(2H)-one 1,1-dioxide]",≤ 5 nM
13,"O=C1c2sc(-c3nc(Nc4ccc(N5CC6(CNC6)C5)cc4C4CC4)ncc3C(F)(F)F)cc2S(=O)(=O)CCN1C1COC1 [Example 377, 7-(2-((2-Cyclopropyl-4-(2,6-diazaspiro[3.3]heptan-2-yl)phenyl)amino)-5-(trifluoromethyl)pyrimidin-4-yl)-4-(oxetan-3-yl)-3,4-dihydrothieno[2,3-f][1,4]thiazepin-5(2H)-one 1,1-dioxide]",≤ 5 nM
14,"C[C@@H]1CN(c2ccc(Nc3ncc(C(F)(F)F)c(-c4cc5c(s4)C(=O)N(C)CCS5(=O)=O)n3)c(C3CC3)c2)CCN1C [Example 378, (R)-7-(2-((2-cyclopropyl-4-(3,4-dimethylpiperazin-1-yl)phenyl)amino)-5-(trifluoromethyl)pyrimidin-4-yl)-4-methyl-3,4-dihydrothieno[2,3-f][1,4]thiazepin-5(2H)-one 1,1-dioxide]",≤ 5 nM
15,"CN1CCS(=O)(=O)c2cc(-c3nc(Nc4ccc(N5C[C@H]6C[C@@H]5CN6)cc4C4CC4)ncc3C(F)(F)F)sc2C1=O [Example 379, 7-(2-((4-((1R,4R)-2,5-diazabicyclo[2.2.1]heptan-2-yl)-2-cyclopropylphenyl)amino)-5-(trifluoromethyl)pyrimidin-4-yl)-4-methyl-3,4-dihydrothieno[2,3-f][1,4]thiazepin-5(2H)-one 1,1-dioxide]",≤ 5 nM
16,"C[C@H]1CN(c2ccc(Nc3ncc(C(F)(F)F)c(-c4cc5c(s4)C(=O)N(C)CCS5(=O)=O)n3)c(C3CC3)c2)CCN1 [Example 380, (S)-7-(2-((2-cyclopropyl-4-(3-methylpiperazin-1-yl)phenyl)amino)-5-(trifluoromethyl)pyrimidin-4-yl)-4-methyl-3,4-dihydrothieno[2,3-f][1,4]thiazepin-5(2H)-one 1,1-dioxide]",≤ 5 nM
17,"CN1CCS(=O)(=O)c2cc(-c3nc(Nc4cnc(N5C[C@H]6C[C@@H]5CN6)cc4C4CC4)ncc3C(F)(F)F)sc2C1=O [Example 382, 7-(2-((6-((1R,4R)-2,5-diazabicyclo[2.2.1]heptan-2-yl)-4-cyclopropylpyridin-3-yl)amino)-5-(trifluoromethyl)pyrimidin-4-yl)-4-methyl-3,4-dihydrothieno[2,3-f][1,4]thiazepin-5(2H)-one 1,1-dioxide]",≤ 5 nM
18,"CN1CCS(=O)(=O)c2cc(-c3nc(Nc4cnc(N5CC6CC(C5)N6)cc4C4CC4)ncc3C(F)(F)F)sc2C1=O [Example 383, 7-(2-((6-(3,6-diazabicyclo[3.1.1]heptan-3-yl)-4-cyclopropylpyridin-3-yl)amino)-5-(trifluoromethyl)pyrimidin-4-yl)-4-methyl-3,4-dihydrothieno[2,3-f][1,4]thiazepin-5(2H)-one 1,1-dioxide]",≤ 5 nM
19,"O=C1c2sc(-c3nc(Nc4cnc(N5CC6CC(C5)N6)cc4C4CC4)ncc3C(F)(F)F)cc2S(=O)(=O)CCN1C1COC1 [Example 384, 7-(2-((6-(3,6-diazabicyclo[3.1.1]heptan-3-yl)-4-cyclopropylpyridin-3-yl)amino)-5-(trifluoromethyl)pyrimidin-4-yl)-4-(oxetan-3-yl)-3,4-dihydrothieno[2,3-f][1,4]thiazepin-5(2H)-one 1,1-dioxide]",≤ 5 nM
20,"CCc1cc(N2CCN[C@H](C)C2)ccc1Nc1ncc(C(F)(F)F)c(-c2cc3c(s2)C(=O)N(C2COC2)CCS3(=O)=O)n1 [Example 406, (R)-7-(2-((2-ethyl-4-(3-methylpiperazin-1-yl)phenyl)amino)-5-(trifluoromethyl)pyrimidin-4-yl)-4-(oxetan-3-yl)-3,4-dihydrothieno[2,3-f][1,4]thiazepin-5(2H)-one 1,1-dioxide]",≤ 5 nM
21,"CCc1cc(N2CCN[C@@H](CO)C2)ccc1Nc1ncc(C(F)(F)F)c(-c2cc3c(s2)C(=O)N(C2CC2)CCS3(=O)=O)n1 [Example 407, (R)-4-cyclopropyl-7-(2-((2-ethyl-4-(3-(hydroxymethyl)piperazin-1-yl)phenyl)amino)-5-(trifluoromethyl)pyrimidin-4-yl)-3,4-dihydrothieno[2,3-f][1,4]thiazepin-5(2H)-one 1,1-dioxide]",≤ 5 nM
22,"CCc1cc(N2CCN(C)[C@@H](CO)C2)ccc1Nc1ncc(C(F)(F)F)c(-c2cc3c(s2)C(=O)N(C2CC2)CCS3(=O)=O)n1 [Example 408, (R)-4-cyclopropyl-7-(2-((2-ethyl-4-(3-(hydroxymethyl)-4-methylpiperazin-1-yl)phenyl)amino)-5-(trifluoromethyl)pyrimidin-4-yl)-3,4-dihydrothieno[2,3-f][1,4]thiazepin-5(2H)-one 1,1-dioxide]",≤ 5 nM
